US7071231B2, “Naphthalene ureas as glucose uptake enhancers” (Telik, Inc., priority 1999, dated 2006)
Where a name gives a salt, the structure may show the parent alone.

What follows are compounds tested on 3T3 L1 fibroblasts (assay: Glucose transport activity assay (14C-2-deoxy-D-glucose uptake)). Details: EC (effective concentration) for increase in glucose transport; 14C-2-deoxy-D-glucose, 3T3 L1 cells; read-out: Concentration (μM) to reach >150% activity of vehicle control.
Assay type: cell-based
Method in brief: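 Differentiated 3T3 L1 adipocytes (IBMX/dexamethasone/insulin induction), serum-starved overnight, preincubated 30 min at 37 °C with compound ± insulin in pH 7.4 salt buffer, then 30 min with 5 μCi/ml 14C-2-deoxy-D-glucose. Lysate radioactivity counted; EC = concentration raising uptake above 150% of vehicle control.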

Compound | EC (150% of vehicle control)
methyl 2-chloro-5-[({7-[({[7-({[4-chloro-3-(methoxycarbonyl)phenyl]amino}sulfonyl)(2-naphthyl)]amino}iminomethyl)amino](2-naphthyl)}sulfonyl)amino]benzoate [Compound 159] | 3.2 µM

Same assay, conditions: Mus musculus; EC (effective concentration) for increase in glucose transport; 14C-2-deoxy-D-glucose, 3T3 L1 cells; read-out: Concentration (μM) to reach >150% activity of vehicle control

Compound | EC (150% of vehicle control)
O=C(Nc1ccc2ccc(S(=O)(=O)O)cc2c1)Nc1ccc2ccc(S(=O)(=O)O)cc2c1 [Compound 3, 7-{[(7-sulfo-2-naphthyl)amino]carbonylamino}naphthalene-2-sulfonic acid disodium salt] | 3.2 µM
O=C(Nc1ccc2c(O)c(Br)c(S(=O)(=O)O)cc2c1)Nc1ccc2c(O)c(Br)c(S(=O)(=O)O)cc2c1 [Compound 16, 3-bromo-7-{[(6-bromo-5-hydroxy-7-sulfo(2-naphthyl))amino]carbonylamino}-4-hydroxynaphthalene-2-sulfonic acid disodium salt] | 32 µM
NS(=O)(=O)c1cccc(NS(=O)(=O)c2ccc3ccc(NC(=O)Nc4ccc5ccc(S(=O)(=O)Nc6cccc(S(N)(=O)=O)c6)cc5c4)cc3c2)c1 [Compound 23, N-(7-{[(3-sulfamoylphenyl)amino]sulfonyl}(2-naphthyl))[(7-{[(3-sulfamoylphenyl)amino]sulfonyl}(2-naphthyl))amino]carboxamide] | 10 µM
O=C(Nc1ccc2cc(S(=O)(=O)Nc3cccc(S(=O)(=O)O)c3)ccc2c1)Nc1ccc2cc(S(=O)(=O)Nc3cccc(S(=O)(=O)O)c3)ccc2c1 [Compound 169, 3-{[(6-{[(6-{[(3-sulfophenyl)amino]sulfonyl}-2-naphthyl)amino]carbonylamino}-2-naphthyl)sulfonyl]amino}benzenesulfonic acid] | 3.2 µM
O=C(Nc1ccc2cc(S(=O)(=O)Nc3cccc(C(=O)O)c3)ccc2c1)Nc1ccc2cc(S(=O)(=O)Nc3cccc(C(=O)O)c3)ccc2c1 [Compound 171, 3-{[(6-{[(6-{[(3-carboxyphenyl)amino]sulfonyl}-2-naphthyl)amino]carbonylamino}-2-naphthyl)sulfonyl]amino}benzoic acid] | 3.2 µM
O=C(Nc1ccc2cc(S(=O)(=O)Nc3ccc(C(=O)O)cc3)ccc2c1)Nc1ccc2cc(S(=O)(=O)Nc3ccc(C(=O)O)cc3)ccc2c1 [Compound 173, 4-{[(6-{[(6-{[(4-carboxyphenyl)amino]sulfonyl}-2-naphthyl)amino]carbonylamino}-2-naphthyl)sulfonyl]amino}benzoic acid] | 3.2 µM
O=C(Nc1ccc2cc(S(=O)(=O)Nc3cc(C(=O)O)cc(C(=O)O)c3)ccc2c1)Nc1ccc2cc(S(=O)(=O)Nc3cc(C(=O)O)cc(C(=O)O)c3)ccc2c1 [Compound 175, 5-{[(6-{[(6-{[(3,5-dicarboxyphenyl)amino]sulfonyl}-2-naphthyl)amino]carbonylamino}-2-naphthyl)sulfonyl]amino}benzene-1,3-dicarboxylic acid] | 3.2 µM
O=C(Nc1ccc2cc(S(=O)(=O)Nc3c(F)c(F)cc(C(=O)O)c3F)ccc2c1)Nc1ccc2cc(S(=O)(=O)Nc3c(F)c(F)cc(C(=O)O)c3F)ccc2c1 [Compound 177, 3-{[(6-{[(6-{[(3-carboxy-2,5,6-trifluorophenyl)amino]sulfonyl}(2-naphthyl))amino]carbonylamino}(2-naphthyl))sulfonyl]amino}-2,4,5-trifluorobenzoic acid] | > 32 µM
O=C(O)Cc1ccc(NS(=O)(=O)c2ccc3cc(NC(=O)Nc4ccc5cc(S(=O)(=O)Nc6ccc(CC(=O)O)cc6)ccc5c4)ccc3c2)cc1 [Compound 179, 2-[4-({[6-({N-[6-({[4-(carboxymethyl)phenyl]amino}sulfonyl)-2-naphthyl]carbamoyl}amino)-2-naphthyl]sulfonyl}amino)phenyl]acetic acid] | > 32 µM
O=C(Nc1ccc2cc(S(=O)(=O)N3CCCC(C(=O)O)C3)ccc2c1)Nc1ccc2cc(S(=O)(=O)N3CCCC(C(=O)O)C3)ccc2c1 (stereo not shown) [Compound 181, 1-({6-[({6-[(3-carboxypiperidyl)sulfonyl]-2-naphthyl}amino)carbonylamino]-2-naphthyl}sulfonyl)piperidine-3-carboxylic acid] | 3.2 µM

What follows are compounds tested against T1, β-kinase domain of the human insulin receptor (CKD) (Homo sapiens, UniProt P06213) (assay: 32P-cytoplasmic kinase domain (CKD) autophosphorylation assay). Details: phosphorylation of CKD expressed as % of the vehicle level; 10 minutes at room temperature; compound concentration not given.
T1 construct: The complete β-kinase domain of the human insulin receptor (CKD) was expressed in, and purified from, baculovirus; made in house
Assay type: biochemical
Experimental: ^32P-cytoplasmic Kinase Domain (CKD) Autophosphorylation Assay The insulin signaling pathway is activated through stimulation of the insulin receptor. A major component of this activation is the phosphorylation of a specific portion of the receptor called the β-kinase domain. The complete β-kinase domain of the human insulin receptor (CKD) was expressed in, and purified from, baculovirus. CKD (4.0μg/ml), in a solution of 29 mM HEPES (pH 7.6), 0.05% Triton X-100, 10 mM MgCl2, 2 mM MnCl2 (50 μl final volume), was combined with 50 μM ATP, and 5 μCi ^32P-ATP (3000Ci/mmol.). A test compound, or the vehicle (dimethyl sulfoxide (DMSO)) was added to a final DMSO concentration of 1%. The mixture was incubated for 10 minutes at room temperature. The reaction was terminated by the addition of 10 μl 200 mM EDTA. A 30 μl volume was removed, mixed with 5 μl of 6× Laemmeli sodium dodecyl sulfate (SDS) treatment buffer, and heated to 94° C. for 5 minutes. A 20 μl aliquot was then run an SDS-PAGE gel. The radioactivity incorporated into the CKD band was quantified by phosphorimaging of the gel, or scintillation counting of the excised bands. The potency of a compound for increasing phosphorylation was expressed as % of the vehicle level.

T1 sequence (P06213 980-1382 limits assumed): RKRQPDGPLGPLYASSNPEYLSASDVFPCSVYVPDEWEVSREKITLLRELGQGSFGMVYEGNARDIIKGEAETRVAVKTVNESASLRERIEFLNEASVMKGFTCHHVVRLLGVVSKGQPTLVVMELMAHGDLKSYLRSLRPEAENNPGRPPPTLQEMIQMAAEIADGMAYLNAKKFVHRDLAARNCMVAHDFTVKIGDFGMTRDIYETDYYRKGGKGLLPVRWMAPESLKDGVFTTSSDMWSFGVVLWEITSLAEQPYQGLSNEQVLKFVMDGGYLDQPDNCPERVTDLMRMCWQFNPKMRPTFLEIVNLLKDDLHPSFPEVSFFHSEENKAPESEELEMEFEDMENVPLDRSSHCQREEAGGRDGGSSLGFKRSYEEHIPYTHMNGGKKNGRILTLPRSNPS

Compound | % Activity vs. Control
O=C(Nc1ccc2ccc(S(=O)(=O)O)cc2c1)Nc1ccc2ccc(S(=O)(=O)O)cc2c1 [Compound 3, 7-{[(7-sulfo-2-naphthyl)amino]carbonylamino}naphthalene-2-sulfonic acid disodium salt] | 88%
Cc1ccc(OS(=O)(=O)c2cccc(NS(=O)(=O)c3ccc4ccc(NC(=O)Nc5ccc6ccc(S(=O)(=O)Nc7cccc(S(=O)(=O)Oc8ccc(C)cc8)c7)cc6c5)cc4c3)c2)cc1 [Compound 9, 4-methylphenyl 3-[({7-[(N-{7-[({3-[(4-methylphenyl)oxysulfonyl]phenyl}amino)sulfonyl]-2-naphthyl}carbamoyl)amino]-2-naphthyl}sulfonyl)amino]benzenesulfonate] | 118%
Cc1ccc(OS(=O)(=O)c2cccc(NS(=O)(=O)c3cc(O)c4ccc(NC(=O)Nc5ccc6c(O)cc(S(=O)(=O)Nc7cccc(S(=O)(=O)Oc8ccc(C)cc8)c7)cc6c5)cc4c3)c2)cc1 [Compound 11, 4-methylphenyl 3-[({4-hydroxy-7-[(N-{5-hydroxy-7-[({3-[(4-methylphenyl)oxysulfonyl]phenyl}amino)sulfonyl](2-naphthyl)}carbamoyl)amino]-2-naphthyl}sulfonyl)amino]benzenesulfonate] | 96%
O=C(Nc1ccc2ccc(S(=O)(=O)O)cc2c1)Nc1ccc2ccc(S(=O)(=O)Nc3cccc(S(=O)(=O)O)c3)cc2c1 [Compound 12, 7-{[(7-{[(3-sulfophenyl)amino]sulfonyl}-2-naphthyl)amino]carbonylamino}naphthalene-2-sulfonic acid disodium salt] | 131%
O=C(O)COc1cc(S(=O)(=O)[O-])cc2cc(NC(=O)Nc3ccc4c(OCC(=O)O)cc(S(=O)(=O)[O-])cc4c3)ccc12.[Na+].[Na+] [Compound 97, 2-[6-({N-[5-(carboxymethoxy)-7-sulfo(2-naphthyl)]carbamoyl}amino)-3-sulfonaphthyloxy]acetic acid disodium salt] | 99%

The remaining lines, values ahead:

% Activity vs. Control | Compound
110% | O=C(Nc1ccc2c(O)cc(S(=O)(=O)O)cc2c1)Nc1ccc2c(O)cc(S(=O)(=O)Nc3cccc(S(=O)(=O)O)c3)cc2c1 [Compound 14, 4-hydroxy-7-{[(5-hydroxy-7-{[(3-sulfophenyl)amino]sulfonyl}(2-naphthyl))amino]carbonylamino}naphthalene-2-sulfonic acid]
144% | O=C(Nc1ccc2c(O)c(Br)c(S(=O)(=O)O)cc2c1)Nc1ccc2c(O)c(Br)c(S(=O)(=O)O)cc2c1 [Compound 16, 3-bromo-7-{[(6-bromo-5-hydroxy-7-sulfo(2-naphthyl))amino]carbonylamino}-4-hydroxynaphthalene-2-sulfonic acid disodium salt]
80% | NS(=O)(=O)c1cccc(NS(=O)(=O)c2ccc3ccc(NC(=O)Nc4ccc5ccc(S(=O)(=O)Nc6cccc(S(N)(=O)=O)c6)cc5c4)cc3c2)c1 [Compound 23, N-(7-{[(3-sulfamoylphenyl)amino]sulfonyl}(2-naphthyl))[(7-{[(3-sulfamoylphenyl)amino]sulfonyl}(2-naphthyl))amino]carboxamide]
112% | COC(=O)c1ccc(NS(=O)(=O)c2cc(O)c3ccc(NC(=O)Nc4ccc5c(O)cc(S(=O)(=O)Nc6ccc(C(=O)OC)cc6)cc5c4)cc3c2)cc1 [Compound 27, methyl 4-({[4-hydroxy-7-({[5-hydroxy-7-({[4-(methoxycarbonyl)phenyl]amino}sulfonyl)(2-naphthyl)]amino}carbonylamino)-2-naphthyl]sulfonyl}amino)benzoate]
89% | O=C(Nc1ccc2ccc(S(=O)(=O)Nc3ccccc3)cc2c1)Nc1ccc2ccc(S(=O)(=O)Nc3ccccc3)cc2c1 [Compound 76, N-{7-[(phenylamino)sulfonyl](2-naphthyl)}({7-[(phenylamino)sulfonyl](2-naphthyl)}amino)carboxamide]
101% | CCOC(=O)COc1cc(S(=O)(=O)O)cc2cc(NC(=O)Nc3ccc4c(OCC(=O)OCC)cc(S(=O)(=O)O)cc4c3)ccc12.N.N [Compound 95, 4-[(ethoxycarbonyl)-methoxy]-7-[({5-[(ethoxycarbonyl)methoxy]-7-sulfo(2-naphthyl)}amino)-carbonylamino]-naphthalene-2-sulfonic acid, diammonium salt]
79% | O=C(Nc1ccc2c(OCc3ccccc3S(=O)(=O)O)cc(S(=O)(=O)O)cc2c1)Nc1ccc2c(OCc3ccccc3S(=O)(=O)O)cc(S(=O)(=O)O)cc2c1 [Compound 100, 4-[(2-sulfophenyl)methoxy]-7-[({7-sulfo-5-[(2-sulfophenyl)methoxy](2-naphthyl)}amino)carbonylamino]naphthalene-2-sulfonic acid]
104% | O=C(Nc1ccc2c(OCCCS(=O)(=O)O)cc(S(=O)(=O)O)cc2c1)Nc1ccc2c(OCCCS(=O)(=O)O)cc(S(=O)(=O)O)cc2c1 [Compound 101, 4-(3-sulfopropoxy)-7-({[7-sulfo-5-(3-sulfopropoxy)(2-naphthyl)]amino}carbonylamino)naphthalene-2-sulfonic acid]
115% | O=C(Nc1ccc2c(O)cc(S(=O)(=O)O)cc2c1)Nc1ccc2c(OCCCS(=O)(=O)O)cc(S(=O)(=O)O)cc2c1 [Compound 102, 4-hydroxy-7-({[7-sulfo-5-(3-sulfopropoxy)(2-naphthyl)]amino}carbonylamino)naphthalene-2-sulfonic acid]
